Data as given in patent US10722518B2, “Oxazine derivative for use in the treatment or prevention of cerebral amyloid angiopathy” (Novartis AG, priority 2016, dated 2020).

System: amyloid-beta in CD31-positive vessels
Assay: Assessment of CAA in APP23 mice by CD31/NT12 double fluorescence immunohistochemistry and image analysis
Assay type: in vivo, mouse
Experimental: Amyloid plaques were stained using a rabbit anti-Aβ primary antibody (NT12) which recognizes the C-terminal part of the amyloid peptide (the antibody was raised as described in Schrader-Fischer G and Paganetti P A, 1996, and Schrader-Fischer G et al., 1997). The vascular endothelial cells were detected using a rat anti-CD31 antibody (reference DIA310) from Dianova GmbH (Hamburg, Germany). All stainings were performed using the fully automated instrument Ventana Discovery® Ultra (Roche Diagnostics Schweiz AG, Rotkreuz, Switzerland). All chemicals were provided by Roche Diagnostic.
All study animals were used and brain tissue sections of 3 micrometers were freshly cut and collected on SuperFrost+ slides. The tissues sections were de-paraffinized and rehydrated under solvent-free conditions (EZprep solution) followed by antigen retrieval (demasking) performed by heat retrieval cycles for 32 min in a EDTA based buffer (CC1 solution). Subsequently, slides were blocked for 4 min using the DISCOVERY Inhibitor (reference 07017944001 (Roche)). The primary antibody diluted at 1/10′000 in antibody diluent was manually added on tissue sections and incubated for 1 h at room temperature. A short post-fixation (glutaraldehyde at 0.05%) was performed before applying the multimer UltraMap-anti Rabbit HRP ready to use antibody (reference 05269717001) for 16 min.
Detection was performed using the DISCOVERY FITC® following the manufacturer's recommendations. Slides were then heat denaturated at 92° C. for 20 min before a manual application of the second primary antibody (rat anti-CD31 diluted at 1/1′000 in antibody diluent) and incubated for 1 h. Multimer UltraMap-anti-Rat HRP antibody (reference 05891884001) was used for 20 min to detect CD31 in combination with the DISCOVERY Rhodamine kit (reference 07259883001).
The slides were washed and mounted using Prolong® Gold antifade reagent (reference P36931, ThermoFisher, Switzerland) and further scanned with the Hamamatsu slide scanner instrument (NanoZoomer 2.0 HT, scanning software NDP-Scan Vers. 2.5, Hamamatsu Photonics France, Swiss Office, Solothurn, Switzerland) at the 40× objective. The scanning settings were as follows: the exposure time with the DAPI filter was set at 28.5 ms as well as for the FITC filter and TRITC filter (detection of Rhodamine).
For the quantitative plaque and vessel-associated amyloid-beta evaluation based on image analysis, a proprietary image analysis platform (ASTORIA, Automated Stored Image Analysis) was developed based on MS Visual Studio 2010 and many functions from Matrox MIL V9 libraries (Matrox Inc, Quebec, Canada).
For the beta-amyloid plaque and vessel analysis, the following sequence of steps was performed: • Slides were scanned with Hamamatsu Nanozoomer at 40× magnification. […]

[1] = 0.03 g/kg food, 6 months, all CD31+ vessels
[2] = 0.03 g/kg food, 6 months, large CD31-positive vessels
[3] = 0.03 g/kg vs vehicle, all CD31+ vessels
[4] = 0.03 g/kg vs vehicle, large vessels
[5] = 0.03 g/kg vs vehicle, small + medium vessels

SMILES: C[C@@]1(c2nc(NC(=O)c3ncc(C(F)(F)F)cc3Cl)ccc2F)CO[C@@](C)(C(F)(F)F)C(N)=N1 [Compound 1, N-(6-((3R,6R)-5-amino-3,6-dimethyl-6-(trifluoromethyl)-3,6-dihydro-2H-1,4-oxazin-3-yl)-5-fluoropyridin-2-yl)-3-chloro-5-(trifluoromethyl)picolinamide]
- % of large vessels with 0% Aβ (0.03 g/kg food, 6 months): 9.14 ± 9.14%
- % of large vessels with 1-10% Aβ (0.03 g/kg food, 6 months): 17.4 ± 1.63%
- % of large vessels with 10-25% Aβ (0.03 g/kg food, 6 months): 11.2 ± 1.68%
- % of large vessels with 25-50% Aβ (0.03 g/kg food, 6 months): 17.5 ± 2.63%
- % of large vessels with 50-75% Aβ (0.03 g/kg food, 6 months): 27.7 ± 1.97%
- % of large vessels with >10% Aβ (0.03 g/kg food, 6 months): 73.5 ± 3.4%
- % of large vessels with >75% Aβ (0.03 g/kg food, 6 months): 17.0 ± 2.92%
- % of small + medium vessels with 0% Aβ (0.03 g/kg food, 6 months): 63.7 ± 2.83%
- % of small + medium vessels with 1-10% Aβ (0.03 g/kg food, 6 months): 22.3 ± 2.65%
- % of small + medium vessels with 10-25% Aβ (0.03 g/kg food, 6 months): 4.86 ± 0.48%
- % of small + medium vessels with 25-50% Aβ (0.03 g/kg food, 6 months): 3.55 ± 0.35%
- % of small + medium vessels with 50-75% Aβ (0.03 g/kg food, 6 months): 2.5 ± 0.31%
- % of small + medium vessels with >10% Aβ (0.03 g/kg food, 6 months): 14.0 ± 1.01%
- % of small + medium vessels with >75% Aβ (0.03 g/kg food, 6 months): 3.11 ± 0.44%
- CAA Frequency (number small + medium vessels with >10% Aβ normalized to sample area, *10^7) (0.03 g/kg food, 6 months): 91 ± 5.9
- Number of large CD31+ vessels (normalized to total CD31 positive vessel numbers in %) (0.03 g/kg food, 6 months): 1.89 ± 0.17%
- Number of small + medium CD31+ vessels (normalized to total CD31 positive small + medium vessel numbers in %) (0.03 g/kg food, 6 months): 98.1 ± 0.17%
- Number small + medium vessels with >10% Aβ, mean ± SEM (0.03 g/kg food, 6 months): 288 ± 21.9
- Total number CD31+ vessels (normalized to total sample area, *10^5), mean ± SEM (0.03 g/kg food, 6 months): 6.52 ± 0.4
- Total vessel-associated NT12 area (normalized to total small + medium CD31+ vessel area) (0.03 g/kg food, 6 months): 0.286 ± 0.0313
- % of vessels with 0% Aβ [1]: 60.3 ± 3.49%
- % of vessels with 1-10% Aβ [1]: 23.2 ± 2.6%
- % of vessels with 10-25% Aβ [1]: 5.65 ± 0.8%
- % of vessels with 25-50% Aβ [1]: 4.06 ± 0.44%
- % of vessels with 50-75% Aβ [1]: 3.13 ± 0.35%
- % of vessels with >10% Aβ [1]: 16.5 ± 0.76%
- % of vessels with >75% Aβ [1]: 3.7 ± 0.55%
- CAA Frequency (number vessels with >10% Aβ normalized to sample area, *10^7) [1]: 94 ± 6.5
- Number vessels with >10% Aβ, mean ± SEM [1]: 319 ± 22.2
- Total vessel-associated NT12 area (normalized to total CD31+ area) [1]: 0.65 ± 0.07
- CAA Frequency (number vessels with >10% Aβ normalized to sample area, *10^7) [2]: 9.3 ± 1.0
- Number vessels with >10% Aβ, mean ± SEM [2]: 29 ± 3.0
- Total vessel-associated NT12 area (normalized to total CD31+ area) [2]: 0.79 ± 0.05
- % of large vessels with 0% Aβ, treatment effect vs vehicle (0.03 g/kg vs vehicle): −18%
- % of large vessels with 1-10% Aβ, treatment effect vs vehicle (0.03 g/kg vs vehicle): +19%
- % of large vessels with 10-25% Aβ, treatment effect vs vehicle (0.03 g/kg vs vehicle): +60%
- % of large vessels with 25-50% Aβ, treatment effect vs vehicle (0.03 g/kg vs vehicle): −9%
- % of large vessels with 50-75% Aβ, treatment effect vs vehicle (0.03 g/kg vs vehicle): −15%
- % of large vessels with >10% Aβ, treatment effect vs vehicle (0.03 g/kg vs vehicle): −1%
- % of large vessels with >75% Aβ, treatment effect vs vehicle (0.03 g/kg vs vehicle): +12%
- % of small + medium vessels with 0% Aβ, treatment effect vs vehicle (0.03 g/kg vs vehicle): −13%
- % of small + medium vessels with 1-10% Aβ, treatment effect vs vehicle (0.03 g/kg vs vehicle): +76%
- % of small + medium vessels with 10-25% Aβ, treatment effect vs vehicle (0.03 g/kg vs vehicle): +16%
- % of small + medium vessels with 25-50% Aβ, treatment effect vs vehicle (0.03 g/kg vs vehicle): −9%
- % of small + medium vessels with 50-75% Aβ, treatment effect vs vehicle (0.03 g/kg vs vehicle): −6%
- % of small + medium vessels with >10% Aβ, treatment effect vs vehicle (0.03 g/kg vs vehicle): +1%
- % of small + medium vessels with >75% Aβ, treatment effect vs vehicle (0.03 g/kg vs vehicle): 0%
- Total small + medium vessel-associated NT12 area (normalized to total CD31+ small + medium vessel area), treatment effect vs vehicle (0.03 g/kg vs vehicle): +6% n.s.
- % of vessels with 0% Aβ, treatment effect vs vehicle [3]: −17%
- % of vessels with 1-10% Aβ, treatment effect vs vehicle [3]: +82%
- % of vessels with 10-25% Aβ, treatment effect vs vehicle [3]: +34%
- % of vessels with 25-50% Aβ, treatment effect vs vehicle [3]: −2%
- % of vessels with 50-75% Aβ, treatment effect vs vehicle [3]: 0%
- % of vessels with >10% Aβ, treatment effect vs vehicle [3]: +12%
- % of vessels with >75% Aβ, treatment effect vs vehicle [3]: +12%
- CAA Frequency, treatment effect vs vehicle [3]: −4% n.s.
- Number vessels with >10% Aβ, treatment effect vs vehicle [3]: −10% n.s.
- Total vessel-associated NT12 area (normalized to total CD31+ area), treatment effect vs vehicle [3]: +14% n.s.
- CAA Frequency, treatment effect vs vehicle [4]: +20% n.s.
- Number vessels with >10% Aβ, treatment effect vs vehicle [4]: +4% n.s.
- Total vessel-associated NT12 area (normalized to total CD31+ area), treatment effect vs vehicle [4]: −1% n.s.
- CAA Frequency, treatment effect vs vehicle [5]: +2% n.s.
- Number vessels with >10% Aβ, treatment effect vs vehicle [5]: −12% n.s.
